Experiments:
[1] = biological target: T1, Thromboxane Synthase (TXA2 Syn.) (Homo sapiens, UniProt P24557); test: TXA2 Synthesis Inhibition (thromboxane synthase, microsomal fractions from human platelets); type: biochemical; settings: human platelet microsomes, 10 μM 14C-PGH2, 22°, 2 minutes
T1 construct: microsomal fractions from human platelets as enzyme source; from tissue; host or cells: microsomal fractions from human platelets
T1 sequence (P24557 1-533): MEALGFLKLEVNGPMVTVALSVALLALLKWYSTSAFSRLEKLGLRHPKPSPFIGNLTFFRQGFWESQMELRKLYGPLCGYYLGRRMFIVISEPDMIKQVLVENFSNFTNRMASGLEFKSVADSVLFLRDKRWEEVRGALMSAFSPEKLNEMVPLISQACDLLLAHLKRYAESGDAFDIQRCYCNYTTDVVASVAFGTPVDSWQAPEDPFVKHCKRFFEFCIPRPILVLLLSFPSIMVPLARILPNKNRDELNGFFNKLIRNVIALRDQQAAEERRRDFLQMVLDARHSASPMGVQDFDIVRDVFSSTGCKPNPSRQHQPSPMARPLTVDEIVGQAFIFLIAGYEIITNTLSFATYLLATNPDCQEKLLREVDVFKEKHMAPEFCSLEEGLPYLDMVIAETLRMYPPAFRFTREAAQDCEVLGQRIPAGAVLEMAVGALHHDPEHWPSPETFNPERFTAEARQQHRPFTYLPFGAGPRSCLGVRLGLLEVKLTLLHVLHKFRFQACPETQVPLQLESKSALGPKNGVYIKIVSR
Method: Thromboxane synthase inhibitory activity is measured by following the conversion of ^14 C-[…] using microsomal fractions from human platelets as enzyme source. In the aqueous incubation medium. The TXA2 decomposes rapidly into TXB2 . The amount of TXA2 syn. is adjusted so that under the conditions of the assay approximately 80-90% of the substrate. PGH2, is converted to product in control tubes. To prepare ^14 C-PGH2, ^14 C-AA(50-60mCi/mmole; Rose Chem.) is incubated with sheep seminal vesicular gland microsomes for 1.5 min. at 37° and then the ^14 C-PGH2 is extracted with diethylether, purified on columns of Sephadex LH-20 or silicic acid, and stored in acetone at -70° C. Incubations are done as follows. Sufficient ^14 C-PGH2 to yield a final substrate concentration of 10 μM ( 30,000 cpm) is added to the incubation tubes and then the acetone is removed under nitrogen. The tubes are placed in an ice bath and then 215 μl of ice cold phosphate buffered saline, 10 μof ethanol (control) or of test drug in ethanol, and 25 μl of the microsomal suspension are added with mixing in that order as rapidly as possible. The tubes are incubated at 22° for 2 minutes, the reaction is stopped and then the radioactive products and the unconverted PGH2 are extracted and analyzed by thin layer chromatography. The amount of ^14 C-PGH2 converted to products is analyzed by thin layer chromatography. The amount of ^14 C-PGH2 converted to products was used as a measure of TXA synthase activity. Inhibitors were tested initially at a concentration of 100 μM.

[2] = system: PAF-Induced Bronchoconstriction; test: PAF-Induced Bronchoconstriction Assay; type: in vivo, guinea pig; settings: Cavia porcellus; for inhibition in vivo at 1 mg/kg: 1 min, 1 mg/kg iv, 1 minute pretreatment; for inhibition in vivo at 50 mg/kg: po, 2 hours pretreatment
Method: The in vivo ability of compounds to inhibit PAF-induced bronchoconstriction in guinea pigs was assessed by the intravenous and oral routes of administration. The intravenous technique utilized male guinea pigs (Hartley strain, Charles River) weighing 400-600 g. Animals were anesthetized with urethane (2 g/kg) intraperitoneally and a polyethylene cannula was inserted into the jugular vein for intravenous drug administration. Tracheal pressure ([…]) was recorded from a Statham pressure transducer (P 32 AA). Propranolol was administered 5 minutes prior to challenge with PAF. Two minutes later spontaneous breathing was arrested with succinylcholine chloride (1.2 mg/kg) administered intravenously, and the animals were ventilated with a Harvard (Model 680) small animal respirator set at 40 breaths/min and 4.0 cc stroke volume. Control vehicle or test drug was administered through the cannula into the jugular vein 1 minute before the animals were challenged with a maximum constrictory dose of PAF (1.0 μg/kg) given intravenously. The change in tracheal pressure was averaged for four control and four drug-treated animals and percent inhibition was calculated.
For determination of oral activity, animals were dosed with test compound or vehicle two hours prior to challenge with PAF (1.0 μg/kg, i.v.).
The change in tracheal pressure is determined by subtracting the steady state baseline achieved after administration of succinylcholine from the peak bronchoconstriction seen after challenge with PAF. The mean change in tracheal pressure is calculated for each test compound and compared to the mean change in tracheal pressure for the control animals to give the percent inhibition of bronchoconstriction. The standard error is calculated as the standard error of the mean.

[3] = biological target: T2, PAF binding, dog platelets (Canis lupus familiaris, UniProt A0A8I3NSH0); test: PAF Binding Assay (3H-PAF binding to washed dog platelets); settings: 10 minutes at room temperature
T2 sequence (A0A8I3NSH0 1-343): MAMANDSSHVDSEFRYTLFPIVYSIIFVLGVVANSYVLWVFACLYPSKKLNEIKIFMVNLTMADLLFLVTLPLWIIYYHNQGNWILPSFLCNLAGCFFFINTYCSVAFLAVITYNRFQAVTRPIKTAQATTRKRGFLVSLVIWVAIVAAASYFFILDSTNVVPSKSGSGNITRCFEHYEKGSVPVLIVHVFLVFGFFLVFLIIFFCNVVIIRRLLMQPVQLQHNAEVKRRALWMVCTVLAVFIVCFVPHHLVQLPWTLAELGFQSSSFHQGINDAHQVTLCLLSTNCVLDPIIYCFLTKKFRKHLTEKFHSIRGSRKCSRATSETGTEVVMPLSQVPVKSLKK
Method: The binding assay was performed in 400 μl polyethylene microcentrifuge tubes (Beckman) containing 50 μl of an oil mixture of 2 parts Siliconol AR200 (Serva): 1 part Silicone Fluid (Arthur H. Thomas). Buffer, standards, or analogs 150 μl total volume) were added to the tubes. Radiolabelled ^3 H-PAF (50 μl) was then added to the tubes. The reaction was started by the addition of 50 μl of dog platelets (2×10^7 platelets). The tubes were capped, inverted several times to mix, and incubated for 10 minutes at room temperature. The platelets were separated from the incubation mixture by centrifuging 1 minute in a Beckman Microfuge B centrifuge. The tip of the microfuge tube was cut off, and the platelets were washed out of the tip with 200 μl of 50% methanol (Burdick and Jackson). Aquasol (NEN, 10 ml) was added and the radioactivity in the samples was determined using an LS 8100 Beckman liquid scintillation counter linked to a Techtran tape recorder. Data was processed through an in-house computer system. Alternatively, radioactivity was determined using a Searle Mark III liquid scintillation counter linked to a Iso-Data microprocessor.
Blood was collected from anesthesized or unanesthesized dogs into 5ml plastic centrifuge tubes containing 3.8% sodium citrate as the anticoagulant (1 volume of citrate/9 volumes of blood). The red cells were removed by centrifugation for 15 minutes at 600 rpm (100-125 g) at room temperature. An aliquot of the supernatant platelet rich Plasma (PRP) was saved for cell counting and the remainder was acidified to pH 6.5 with 0.15M citric acid. The platelet pellet was obtained after a 10 minute centrifugation at 2000 rpm (1000 g) at room temperature. Washed platelets were prepared by resuspending the platelet pellet once with PBS containing 1 mM EDTA, centrifuging as noted, and then resuspending the platelets in 0.1% BSA-PBS. An aliquot of the washed platelets was counted, platelets used for binding assays were diluted to 2×10^7 platelets/assay tube (4×10^8 platelets/ml).

[4] = system: PAF-Induced Platelet Count Decrease; test: PAF-Induced Platelet Count Decrease; type: in vivo, guinea pig; settings: for inhibition in vivo at 3 mg/kg: Cavia porcellus, Platelet, 0.25 h, iv, 15 minutes pretreatment time, read-out: PAF-Induced Platelet Count Decrease % Inhibition, i.v.
Method: Male Hartley guinea pigs weighing between 500 and 900 grams were fed standard guinea pig chow and tap water ad libitum. PAF was solubilized in ethanol and stored as a 2 mM stock solution at -70° C. The stock solution of PAF was diluted to […] in Tris buffer pH 7.4 and 0.1% BSA for all experiments.
Guinea pigs were anesthetized with urethane (1.6 g/kg, i.p.). A catheter (PE50) was introduced into the right carotid artery for withdrawing blood. A second catheter PE10) was introduced into the jugular vein for injecting drugs and for administering the PAF challenge (75 ng/kg, i.v.). A control blood sample was obtained and platelets were counted in a whole blood platelet analyzer. PAF was then given and blood samples were taken 15, 30, and 60 seconds after the challenge for platelet counts. Fifteen minutes later, selected concentrations of the test compound were solubilized in DMSO and injected intravenously into a group of 4-6 animals. Only one concentration of the test drug was used in each animal group. Fifteen minutes after drug injection, blood samples were taken before and 15, 30, and 60 sec after the PAF challenge, and analyzed for platelet number.
Animals were anesthetized with sodium pentobarbital (35 mg/kg. i.p.) and the carotid artery and jugular vein were cannulated as described above. The cannulae were exteriorized at the base of the neck and the animals were allowed to recover. Conscious, unrestrained guinea pigs which were allowed to recover from surgery for at least 18 hours were used in the experiments. The animals were challenged two times with PAF (120 ng/kg, i.v.); the first to establish a consistent response to PAF and the second to serve as a control from the PAF challenge. Blood samples were taken before and 15, 30, and 45 seconds after PAF challenge and platelets were counted. Thirty minutes after the control PAF challenge, the animals were orally dosed with either gum acacia or the test compound. Animals were then challenged with PAF at 1, 3, 5, and 24 hours after the administration of the drug.
The % change, i.e., the difference in platelet number before and after PAF challenge was calculated by: [formula] The % activity of drug was then determined by
Statistical significance (p≤0.05) of the difference between the mean PAF control and mean drug treated activity was determined with the pared Students's t-test.

[5] = system: PAF-Induced Platelet Count Decrease; test: PAF-Induced Platelet Count Decrease; type: in vivo, guinea pig; settings: 30 mg/kg, 2 hours, pretreatment

| SMILES | IC50 [1] [nM] | IC50 [3] [nM] | inhibition in vivo at 1 mg/kg [2] [%] | PAF-Induced Platelet Count Decrease % Inhibition, po ([4]; 100 mg/kg, po, 3 hours, pretreatment) [%] | inhibition in vivo at 3 mg/kg [4] [%] | PAF-Induced Platelet Count Decrease % Inhibition, po [5] [%] | inhibition in vivo at 50 mg/kg [2] [%] |
| --- | --- | --- | --- | --- | --- | --- | --- |
| Cc1ccc(-c2ccc(-c3nnnn3CCCCc3cccnc3)cc2)cc1C [3-[4-[5-(3',4'-Dimethyl-[1,1'-biphenyl]-4-yl)-1H-tetrazol-1-yl]butyl]pyridine] | > 1000 | 800 | 57 ± 4 |  |  |  |  |
| COc1ccc(-c2ccc(C(=S)NCCCCc3cccnc3)cc2)cc1OC [3',4'-Dimethoxy-N-[4-(3-pyridinyl)butyl][1,1'-biphenyl]-4-carbothioamide] | 225 |  |  | 53 | 15 |  |  |
| O=C(NCCCCc1cccnc1)c1ccc(-c2cccc(O)c2)cc1 [3'-Hydroxy-N-[4-(3-pyridinyl)-butyl][1,1'-biphenyl]-4-carboxamide] | < 100 | 300 |  |  |  |  |  |
| COc1cccc(-c2ccc(C(=O)NCCCCc3cccnc3)cc2)c1 [3'-Methoxy-N-[4-(3-pyridinyl)butyl][1,1'-biphenyl]-4-carboxamide] | 25 | 280 | 70 ± 10 |  |  |  | 55 ± 17 |
| Cc1ccc(-c2ccc(C(=O)NC(C)CCCc3cccnc3)cc2)cc1C (racemic) [(rac.)-3',4'-Dimethyl-N-[1-methyl-4-(3-pyridinyl)butyl][1,1'-biphenyl]-4-carboxamide] | 100 to 1000 | 200 |  |  | 12 |  |  |
| Cc1ccc(-c2ccc(C(=O)NCCCCc3cccnc3)cc2)cc1C [3',4'-Dimethyl-N-[4-(3-pyridinyl)butyl][1,1-biphenyl]-4-carboxamide] | 125 | 700 |  |  |  |  |  |
| O=C(NCCCCc1cccnc1)c1ccc(-c2ccccc2)cc1 [N-[4-(3-Pyridinyl)butyl]-[1,1'-biphenyl]-4-carboxamide] | 100 |  | 42 ± 7 |  |  |  |  |
| Cc1ccc(-c2ccc(C(=O)NCCCCCCc3cccnc3)cc2)cc1C [3',4'-Dimethyl-N-[6-(3-pyridinyl)hexyl][1,1'-biphenyl]-4-carboxamide] | 600 | 450 |  |  | 27 |  |  |

Second part, led by results:

| IC50 [1] [nM] | IC50 [3] [nM] | SMILES | inhibition in vivo at 1 mg/kg [2] [%] | PAF-Induced Platelet Count Decrease % Inhibition, po ([4]; 100 mg/kg, po, 3 hours, pretreatment) [%] | inhibition in vivo at 3 mg/kg [4] [%] | PAF-Induced Platelet Count Decrease % Inhibition, po [5] [%] | inhibition in vivo at 50 mg/kg [2] [%] |
| --- | --- | --- | --- | --- | --- | --- | --- |
| 100 to 1000 | 60 | COc1ccc(-c2ccc(C(=S)NC(C)CCCc3cccnc3)cc2)cc1OC (racemic) [rac.-3',4'-Dimethoxy-N-[1-methyl-4-(3-pyridinyl)butyl][1,1'-biphenyl]-4-carbothioamide] | 86 ± 7 |  | 24 | 48 | 37 ± 9 |
| 100 to 1000 | 120 | COc1cccc(-c2ccc(C(=S)NC(C)CCCc3cccnc3)cc2)c1 (racemic) [(rac.)-3'-Methoxy-N-(1-methyl-4-(3-pyridinyl)butyl][1,1'-biphenyl]-4-carbothioamide] | 16 ± 14 |  | 6 |  |  |
|  | 20 | COc1cccc(-c2ccc(C(=O)N[C@H](C)CCCc3cccnc3)cc2)c1 [(R)-3'-Methoxy-N-[1-methyl-4-(3-pyridinyl)butyl]-[1,1'-biphenyl]-4-carboxamide] |  |  | 17 |  |  |
| 100 to 1000 | 200 | Cc1ccc(-c2ccc(-c3nnnn3CCCCCCc3cccnc3)cc2)cc1C [3-[6-[5-(3',4'-Dimethyl-[1,1'-biphenyl]-4-yl)-1H-tetrazol-1-yl]hexyl]pyridine] | 18 ± 13 |  | 0 |  |  |
|  | 60 | COc1ccc(-c2cc(C)c(C(=O)NCCCCc3cccnc3)c(C)c2)cc1OC [3',4'Dimethoxy-3,5-dimethyl-N-[4-(3-pyridinyl)butyl][1,1'-biphenyl]-4-carboxamide] | 17 ± 11 |  | 14 |  |  |
|  | 110 | Cc1ccc(-c2ccc(C(=S)NC(C)CCCc3cccnc3)cc2)cc1C (racemic) [rac.-3',4'-Dimethyl-N-[1-methyl-4-(3-pyridinyl)butyl][1,1'-biphenyl]-4-carbothioamide] | 4 ± 4 |  | 28 |  |  |

Reference: patent US4916145A, “Substituted n-[(pyridyl)alkyl]aryl-carboxamide” (Hoffmann-La Roche Inc., priority 1987, dated 1990)
